Measured values as given in ChEMBL document CHEMBL1201862, “PubChem BioAssay data set” (2004).
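48-hour exposure; five concentrations; linearly interpolated endpoints. Here, GI50 denotes the concentration required for 50% inhibition of growth.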 The source made the active and inactive calls. No stated cut-off is given here; in the data, active = GI50 up to about 1.1 µM and inactive = higher.

How the values were obtained:
Assay in all cases: NCI anticancer screen, dose series, 48 h
MDA-MB-435 = test system: MDA-MB-435
COLO 205 = test system: COLO 205
OVCAR-3 = test system: OVCAR-3
NCI-H226 = test system: NCI-H226
SF-539 = test system: SF-539
SF-295 = test system: SF-295
ACHN = test system: ACHN
K562 = test system: K562
SK-MEL-5 = test system: SK-MEL-5
A549 = test system: A549
SW-620 = test system: SW-620
T47D = test system: T47D
OVCAR-5 = test system: OVCAR-5
Malme-3M = test system: Malme-3M
MOLT-4 = test system: MOLT-4
UACC-62 = test system: UACC-62
OVCAR-4 = test system: OVCAR-4
HCT-15 = test system: HCT-15
RPMI-8226 = test system: RPMI-8226
Hs-578T = test system: Hs-578T
CAKI-1 = test system: CAKI-1
MCF7 = test system: MCF7
PC-3 = test system: PC-3
OVCAR-8 = test system: OVCAR-8
SF-268 = test system: SF-268
M14 = test system: M14
HCT-116 = test system: HCT-116
HOP-62 = test system: HOP-62
MDA-N = test system: MDA-N
SNB-19 = test system: SNB-19
786-0 = test system: 786-0
SK-OV-3 = test system: SK-OV-3
IGROV-1 = test system: IGROV-1
SK-MEL-28 = test system: SK-MEL-28
HCC 2998 = test system: HCC 2998
NCI-H23 = test system: NCI-H23
NCI/ADR-RES = test system: NCI/ADR-RES
DU-145 = test system: DU-145
KM12 = test system: KM12
HT-29 = test system: HT-29
SN12C = test system: SN12C
U-251 = test system: U-251
TK-10 = test system: TK-10
RXF 393 = test system: RXF 393
SR = test system: SR
CCRF-CEM = test system: CCRF-CEM
HOP-92 = test system: HOP-92
NCI-H460 = test system: NCI-H460
NCI-H522 = test system: NCI-H522
LOX IMVI = test system: LOX IMVI
SNB-75 = test system: SNB-75
SK-MEL-2 = test system: SK-MEL-2
UACC-257 = test system: UACC-257
EKVX = test system: EKVX
UO-31 = test system: UO-31

Measured: GI50

C/C(=C\C(=N\NC(=N)N)c1ccccc1)c1ccccc1
inactive: MDA-MB-435 1.24 µM | NCI-H226 1.15 µM | K562 1.53 µM | Malme-3M 1.16 µM | UACC-62 1.15 µM | Hs-578T 1.32 µM | OVCAR-8 1.24 µM | M14 1.17 µM | SNB-19 1.6 µM | SK-OV-3 4.3 µM | SK-MEL-28 2.58 µM | NCI/ADR-RES 2.78 µM | KM12 1.17 µM | TK-10 1.17 µM | RXF 393 1.41 µM | SR 2.18 µM | NCI-H460 2.25 µM | LOX IMVI 1.23 µM | SNB-75 4.28 µM
1.99 µM: HCT-15
active: COLO 205 0.0348 µM | OVCAR-3 0.409 µM | SF-539 0.432 µM | SF-295 0.409 µM | ACHN 0.2 µM | SK-MEL-5 0.281 µM | A549 0.577 µM | SW-620 0.318 µM | T47D 0.12 µM | OVCAR-5 0.64 µM | MOLT-4 0.261 µM | OVCAR-4 0.321 µM | RPMI-8226 1.01 µM | CAKI-1 0.149 µM | MCF7 0.321 µM | PC-3 0.313 µM | SF-268 0.459 µM | HCT-116 0.273 µM | HOP-62 0.0822 µM | MDA-N 0.973 µM | 786-0 0.843 µM | IGROV-1 0.432 µM | HCC 2998 0.26 µM | NCI-H23 0.354 µM | DU-145 0.406 µM | HT-29 0.354 µM | SN12C 0.454 µM | U-251 0.652 µM | CCRF-CEM 0.208 µM | HOP-92 0.716 µM | NCI-H522 0.452 µM

CCC1C(c2cccc(OC)c2O)c2cc3c(cc2OC1N1CCCC1)OCO3 (stereo not drawn)
inactive: MDA-MB-435 3.85 µM | COLO 205 > 10 µM | OVCAR-3 13.8 µM | SK-MEL-2 17.1 µM | SF-539 12.2 µM | SF-295 16.8 µM | ACHN 15 µM | K562 11.8 µM | SK-MEL-5 10.4 µM | A549 17.4 µM | SW-620 12.2 µM | T47D 16.2 µM | OVCAR-5 20.1 µM | MOLT-4 12.8 µM | UACC-62 17.5 µM | UACC-257 17.8 µM | RPMI-8226 12.6 µM | Hs-578T 3.75 µM | MCF7 22.2 µM | PC-3 16.6 µM | OVCAR-8 20.6 µM | SF-268 16.7 µM | M14 6.43 µM | HCT-116 8.47 µM | HOP-62 18.4 µM | MDA-N 3.24 µM | SNB-19 14.6 µM | 786-0 16.1 µM | IGROV-1 14.9 µM | SK-MEL-28 16.3 µM | HCC 2998 10 µM | NCI-H23 26.4 µM | NCI/ADR-RES 15.7 µM | DU-145 > 10 µM | KM12 12 µM | HT-29 16.5 µM | SN12C 18.1 µM | TK-10 16.4 µM | SR 14.9 µM | EKVX 22.8 µM | CCRF-CEM 12.6 µM | NCI-H460 20.2 µM | NCI-H522 10.7 µM | LOX IMVI 23.3 µM | UO-31 14.1 µM | SNB-75 17.7 µM
12.2 µM: HCT-15
